# Laboratory results from patent US20160213635A1, “COMPOSITIONS USEFUL IN THE PREVENTION OR TREATMENT OF SKIN CANCER” (GIULIANI S.P.A., priority 2013, published 2016).
# System: NHKs cells
# Assay: Western Blot assessment (non-cleaved caspase 3) of apoptosis induced by UV irradiation and subsequent treatment with G01
# Type: cell-based, human
# Conditions: post-treatment 90 μM; UVA 25 J/cm^2, UVB 80 mJ/cm^2; 24 h
# Method: The NHKs cells were plated in the specific culture medium and maintained in culture for 24±2 h to allow adhesion to the plate. Subsequently, the plates identified as +UVA, +G01/UVA, +UVB, and +G01/UVB were respectively exposed, in the irradiation medium, to doses of UVA of 25 J/cm^2 and UVB of 80 mJ/cm^2, while the control plates (Ctr) and those treated only with the compound under examination (G01) were maintained in the dark and at room temperature for a period of time equal to the irradiation time. The irradiation medium was then replaced with the culture medium containing the compound G01, in a concentration of 90 μM. Based on the preliminary results obtained on a broader time range, a post-treatment time of 24 h was selected, after which the plates were processed for Western Blot protein determination. The protein expression of non-cleaved caspase 3 in each condition tested (treatment with the compound G01 under examination and/or UVA/UVB irradiation) was compared with the expression in the control cells.
structure (smiles),measurement,value
"C/C=C/C=C/C=C/C(=O)O [G01, 2,4,6-trans-octatrienoic acid]",caspase 3 activation (protein expression of non-cleaved caspase 3),reduce caspase 3 activation
